From patent US11584744B2 (UNIVERSITY OF WASHINGTON, priority 2017, dated 2023)
In brackets after ≈: the same amount, converted by molar mass. Read-outs that look alike come from different tables or passages of the source.

Key:
[1] = tested on: C. parvum; assay: C. parvum growth inhibition; assay type: cell-based, Cryptosporidium parvum; settings: read-out: (J) C. parvum EC50
[2] = molecular target: MetRS (C. parvum) (Cryptosporidium parvum, UniProt Q5CVN0); assay: MetRS (C. parvum) enzyme inhibition; assay type: biochemical; settings: read-out: (C) MetRS (C. parvum) IC50
MetRS (C. parvum), sequence (Q5CVN0 entry or part of it): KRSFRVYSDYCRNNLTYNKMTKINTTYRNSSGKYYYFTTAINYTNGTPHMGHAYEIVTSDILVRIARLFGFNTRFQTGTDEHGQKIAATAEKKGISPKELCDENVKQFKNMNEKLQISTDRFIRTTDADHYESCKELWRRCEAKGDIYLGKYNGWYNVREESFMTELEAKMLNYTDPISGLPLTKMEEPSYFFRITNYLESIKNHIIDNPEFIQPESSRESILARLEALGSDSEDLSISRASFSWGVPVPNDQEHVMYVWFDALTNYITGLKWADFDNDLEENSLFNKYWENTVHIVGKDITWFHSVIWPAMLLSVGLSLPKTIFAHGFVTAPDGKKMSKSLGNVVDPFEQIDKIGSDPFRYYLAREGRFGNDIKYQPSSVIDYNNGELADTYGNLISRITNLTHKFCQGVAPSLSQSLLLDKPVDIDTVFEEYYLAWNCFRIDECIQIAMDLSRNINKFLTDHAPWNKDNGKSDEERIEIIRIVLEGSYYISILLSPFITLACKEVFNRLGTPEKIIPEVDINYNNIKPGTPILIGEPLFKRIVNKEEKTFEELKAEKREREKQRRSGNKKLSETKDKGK

[3] = tested on: T. brucei; assay: T. brucei growth inhibition; assay type: cell-based, Trypanosoma brucei; settings: read-out: (D) T. brucei EC50
[4] = tested on: T. cruzi; assay: T. cruzi growth inhibition; assay type: cell-based, Trypanosoma cruzi; settings: read-out: (E) T. cruzi EC50
[5] = tested on: S. aureus MSSA (ATCC 29213); assay: MIC susceptibility testing; assay type: cell-based, Staphylococcus aureus; settings: S. aureus ATCC 29213; for MIC: Staphylococcus aureus, read-out: (F) S. aureus (ATCC 29213) MIC
Description: Media and culture conditions. Mueller Hinton broth (MHB), cation adjusted Mueller Hinton broth (CA-MHB), and Brain Heart Infusion broth (BHI) were purchased from Becton Dickinson (Franklin Lakes, N.J.). Tryptic soy agar (TSA) plates, TSA with 5% sheep blood plates, and CA-MHB with 3% laked horse blood were purchased from Remel (San Diego, Calif.). MHB was used to assay all Staphylococcus aureus strains. CA-MHB was used for Staphylococcus epidermidis, Enterococcus faecalis, Enterococcus faecium, Escherichia coli, and Pseudomonas aeruginosa. CA-MHB supplemented with 3% laked horse blood was used for Streptococcus pneumoniae and Streptococcus pyogenes. Staphylococcus, Enterococcus, Escherichia, and Pseudomonas strains were cultured at 37° C. with ambient air. Streptococcus strains were cultured in 37° C. with 5% CO2. Separate conditions for radiolabeled precursor uptake assays are described below.
Susceptibility testing: Minimum inhibitory concentration (MIC) determinations were performed in triplicate in 96-well round bottom microtiter plates (Corning, Corning N.Y.) as described by the Clinical and Laboratory Standards Institute (CLSI). Serial two-fold dilutions of compounds were added to plates in 50 μL volumes. An additional 50 μL of media containing bacterial cells (1×10^6 CFUs/mL) was then added to each well. Maximum DMSO concentrations were 0.5%. Plates were incubated at 37° C. for at least 18 h before reading the susceptibility result by optical absorbance (OD600) using a BioTek ELx800. The lowest concentration causing ≥90% growth inhibition compared to the untreated control was recorded as the MIC (and also corresponded to the visual MIC). MICs were measured at least twice and the higher value (if different) was recorded herein.

[6] = molecular target: T1, MetRS (T. brucei) (Trypanosoma brucei brucei, UniProt Q38C91); assay: MetRS (T. brucei) enzyme inhibition; assay type: biochemical
T1 sequence (Q38C91 1-773): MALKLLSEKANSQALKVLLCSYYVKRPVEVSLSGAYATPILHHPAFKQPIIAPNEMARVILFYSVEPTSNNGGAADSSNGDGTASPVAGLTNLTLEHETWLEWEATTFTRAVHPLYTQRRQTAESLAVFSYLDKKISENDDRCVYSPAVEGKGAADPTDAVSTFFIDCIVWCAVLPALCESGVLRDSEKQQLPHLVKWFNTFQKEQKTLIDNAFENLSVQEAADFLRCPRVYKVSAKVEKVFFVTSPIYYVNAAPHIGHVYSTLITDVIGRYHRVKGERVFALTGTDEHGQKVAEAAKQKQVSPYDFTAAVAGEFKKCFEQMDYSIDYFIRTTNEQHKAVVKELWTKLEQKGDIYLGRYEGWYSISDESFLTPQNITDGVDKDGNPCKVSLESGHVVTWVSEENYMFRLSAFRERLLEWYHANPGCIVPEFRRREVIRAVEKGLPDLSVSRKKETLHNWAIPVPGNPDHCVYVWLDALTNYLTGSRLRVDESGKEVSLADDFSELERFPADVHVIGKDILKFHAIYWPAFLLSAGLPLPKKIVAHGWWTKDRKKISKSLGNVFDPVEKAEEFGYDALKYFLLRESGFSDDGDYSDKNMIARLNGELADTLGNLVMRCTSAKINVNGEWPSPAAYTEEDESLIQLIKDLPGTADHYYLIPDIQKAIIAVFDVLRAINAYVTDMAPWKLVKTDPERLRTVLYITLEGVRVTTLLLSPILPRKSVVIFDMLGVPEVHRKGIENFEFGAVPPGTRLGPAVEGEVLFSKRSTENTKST

Row | EC50 ([1]; Cryptosporidium parvum) | IC50 [2] | EC50 ([3]; Trypanosoma brucei) | EC50 ([4]; Trypanosoma cruzi) | EC50 [1] | EC50 [4] | MIC [5] | IC50 [6] | EC50 [3] | (F) S. aureus (ATCC 29213) MIC [5] | Compound
1 | > 2 µM | 0.127 µM | 0.174 µM |  |  |  |  |  |  |  | COc1ccc(Cc2cn(Cc3nc4ncc(Cl)c(C)c4[nH]3)c(=O)n2CC(C)(C)O)c(Cl)c1 [Compound 2238, 4-[(2-chloro-4-methoxyphenyl)methyl]-1-({6-chloro-7-methyl-1H-imidazo[4,5-b]pyridin-2-yl}methyl)-3-(2-hydroxy-2-methylpropyl)-2,3-dihydro-1H-imidazol-2-one]
2 | > 2 µM |  | 0.0433 µM | 0.706 µM |  |  |  |  |  |  | OCCOc1cc(-c2cccc3nc(Cc4nc5nc(Cl)ccc5[nH]4)cn23)c(Cl)cc1Cl [Compound 2270, 2-{2,4-dichloro-5-[2-({5-chloro-1H-imidazo[4,5-b]pyridin-2-yl}methyl)imidazo[1,2-a]pyridin-5-yl]phenoxy}ethan-1-ol]
3 | 0.753 µM |  |  | 0.0969 µM | 1.44 µM | 0.172 µM |  |  |  |  | COc1ccc(-c2cccn3c(=S)n(Cc4nc5nc(Cl)ccc5[nH]4)cc23)c(Cl)c1 [Compound 2243, 2-({5-chloro-1H-imidazo[4,5-b]pyridin-2-yl}methyl)-8-(2-chloro-4-methoxyphenyl)-2H,3H-imidazo[1,5-a]pyridine-3-thione]
4 |  | < 0.04 µM |  | 0.608 µM |  |  | 2.04 mg/L (≈ 4.55 µM) | < 0.04 µM |  |  | CC(C)(C)n1c(Cc2ccc(Cl)cc2Cl)cn(Cc2nc3ccc(F)nc3[nH]2)c1=O [Compound 2084, 3-tert-butyl-4-[(2,4-dichlorophenyl)methyl]-1-({5-fluoro-1H-imidazo[4,5-b]pyridin-2-yl}methyl)-2,3-dihydro-1H-imidazol-2-one]
5 | 1.84 µM |  |  | 0.325 µM |  |  | 1.62 mg/L (≈ 2.86 µM) |  |  |  | CC(=O)N1CCC(Cn2c(Cc3ccc(Cl)cc3Cl)cn(Cc3nc4nc(F)ccc4[nH]3)c2=O)C(F)(F)C1 (stereo not drawn) [Compound 2265, 3-[(1-acetyl-3,3-difluoropiperidin-4-yl)methyl]-4-[(2,4-dichlorophenyl)methyl]-1-({5-fluoro-1H-imidazo[4,5-b]pyridin-2-yl}methyl)-2,3-dihydro-1H-imidazol-2-one]
6 | > 2 µM |  | 0.0644 µM | 0.366 µM |  |  | 3.29 mg/L (≈ 6.95 µM) |  | 0.0691 µM |  | O=c1n(Cc2nc3c(F)c(F)ccc3[nH]2)cc(Cc2ccc(Cl)cc2Cl)n1CC(F)F [Compound 2263, 4-[(2,4-dichlorophenyl)methyl]-1-[(6,7-difluoro-1H-1,3-benzodiazol-2-yl)methyl]-3-(2,2-difluoroethyl)-2,3-dihydro-1H-imidazol-2-one]
7 | > 2 µM | > 1 µM | 1.05 µM |  |  |  |  |  |  |  | CCn1c(Cc2ccc(Cl)cc2Cl)cn(Cc2nc3c(ccc(Cl)[n+]3[O-])[nH]2)c1=O [Compound 2235, 1-({5-chloro-4-oxo-1H-4λ^5-imidazo[4,5-b]pyridin-2-yl}methyl)-4-[(2,4-dichlorophenyl)methyl]-3-ethyl-2,3-dihydro-1H-imidazol-2-one]
8 | 1.5 µM |  | 0.0189 µM | 0.126 µM |  |  | 0.557 mg/L (≈ 1.27 µM) |  | 0.0256 µM |  | CCn1c(Cc2ccc(Cl)cc2Cl)cn(Cc2nc3ccc(F)c(F)c3[nH]2)c1=O [Compound 2262, 4-[(2,4-dichlorophenyl)methyl]-1-[(6,7-difluoro-1H-1,3-benzodiazol-2-yl)methyl]-3-ethyl-2,3-dihydro-1H-imidazol-2-one]
9 | > 2 µM | 0.335 µM | 1.66 µM |  |  |  |  |  |  |  | COC(=O)c1c(Cl)ccc2[nH]c(Cc3cn4c(-c5ccc(OC)cc5Cl)cccc4n3)nc12 [Compound 2236, methyl 5-chlor0-2-{[5-(2-chloro-4-methoxyphenyl)imidazo[1,2-a]pyridin-2-yl]methyl}-1H-1,3-benzodiazole-4-carboxylate]
10 | 0.188 µM |  | < 0.00091 µM | 0.00539 µM | 0.193 µM | 0.00596 µM | 0.415 mg/L (≈ 0.886 µM) |  | 0.00135 µM |  | COc1ccc(Cc2cn(Cc3nc4nc(Cl)ccc4[nH]3)c(=O)n2CC(F)F)c(Cl)c1 [Compound 2258, 1-({5-chloro-1H-imidazo[4,5-b]pyridin-2-yl}methyl)-4-[(2-chloro-4-methoxyphenyl)methyl]-3-(2,2-difluoroethyl)-2,3-dihydro-1H-imidazol-2-one]
11 |  | 0.0492 µM | 0.025 µM | 0.36 µM |  |  | 3.8 mg/L (≈ 7.88 µM) | 0.059 µM |  | 3.21 mg/L | COc1ccc(-c2cnc(NC(C)=O)c3nc(Cc4nc5nc(Cl)ccc5[nH]4)cn23)c(Cl)c1 [Compound 2186, N-[2-({5-chloro-1H-imidazo[4,5-b]pyridin-2-yl}methyl)-5-(2-chloro-4-methoxyphenyl)imidazo[1,2-a]pyrazin-8-yl]acetamide]
12 | > 2 µM | > 1 µM | 0.546 µM |  |  |  |  |  |  |  | COC(=O)c1c(Cl)ccc2[nH]c(Cn3cc(Cc4ccc(OC)cc4Cl)n(CC(C)(C)O)c3=O)nc12 [Compound 2237, methyl 5-chlor0-2-({4-[(2-chloro-4-methoxyphenyl)methyl]-3-(2-hydroxy-2-methylpropyl)-2-oxo-2,3-dihydro-1H-imidazol-1-yl}methyl)-1H-1,3-benzodiazole-4-carboxylate]
13 | 0.34 µM |  |  | 0.214 µM | 0.561 µM |  |  |  |  |  | COc1ccc(Cc2cn(Cc3nc4c(F)c(F)ccc4[nH]3)c(=O)n2CC(F)F)c(Cl)c1 [Compound 2261, 4-[(2-chloro-4-methoxyphenyl)methyl]-1-[(6,7-difluoro-1H-1,3-benzodiazol-2-yl)methyl]-3-(2,2-difluoroethyl)-2,3-dihydro-1H-imidazol-2-one]
14 |  | 0.213 µM | 0.0453 µM | 2.71 µM |  |  | > 10 mg/L | 0.055 µM |  | 13.2 mg/L | O=c1[nH]c(C(O)c2ccc(Cl)cc2Cl)cn1Cc1nc2nc(Cl)ccc2[nH]1 (stereo not drawn) [Compound 2202, 1-({5-chloro-1H-imidazo[4,5-b]pyridin-2-yl}methyl)-4-[(2,4-dichlorophenyl)(hydroxy)methyl]-2,3-dihydro-1H-imidazol-2-one]
15 |  | < 0.04 µM |  | 0.438 µM |  |  | 1.33 mg/L (≈ 2.89 µM) | < 0.04 µM |  |  | O=c1n(Cc2nc3ccc(F)nc3[nH]2)cc(Cc2ccc(Cl)cc2Cl)n1C1CCCC1 [Compound 2081, 3-cyclopentyl-4-[(2,4-dichlorophenyl)methyl]-1-({5-fluoro-1H-imidazo[4,5-b]pyridin-2-yl}methyl)-2,3-dihydro-1H-imidazol-2-one]
16 |  | 0.0475 µM |  | 0.502 µM |  |  | > 2.5 mg/L | < 0.04 µM |  |  | CCn1c(Cc2ccc(Cl)cc2Cl)cn(Cc2nc3ccc(C)nc3[nH]2)c1=O [Compound 2092, 4-[(2,4-dichlorophenyl)methyl]-3-ethyl-1-({5-methyl-1H-imidazo[4,5-b]pyridin-2-yl}methyl)-2,3-dihydro-1H-imidazol-2-one]
17 | > 2 µM |  | 0.0539 µM | 0.494 µM |  |  |  |  |  |  | Clc1ccc2[nH]c(Cc3cn4c(-c5cc(OCCOC6CCCCO6)c(Cl)cc5Cl)cccc4n3)nc2n1 (stereo not drawn) [Compound 2271, 2-({5-chloro-1H-imidazo[4,5-b]pyridin-2-yl}methyl)-5-{2,4-dichloro-5-[2-(oxan-2-yloxy)ethoxy]phenyl}-imidazo[1,2-a]pyridine]
